Among the data in ChEMBL document CHEMBL3639238, “Hybrid cholinesterase inhibitors” (2014) are IC50 values, retold here.

The target of one assay is Cholinesterase (Homo sapiens, UniProt P06276). The assay is described as follows: (§1) Inhibition Assay: The biological activity of the compounds of general formula (I) towards the cholinesterase inhibition was evaluated using Ellman's method (Ellman, G. L.; Courtney, K. D.; Anders, B.; Featherstone, R. M. Biochem. Pharmacol. 1961, 7, 88-95).This method of evaluation of the cholinesterase inhibitors activity is based on the fact that acetyl/butyrylcholinesterase interacts with the inhibitor, which prevents the acetyl/butyrylcholine hydrolysis. The inhibitor causes the enzyme activity drop which is dependent on the inhibitor concentration. The enzyme unbound with the inhibitor is able to hydrolyze acetyl/butyrylthiocholine (ASCh/BSCh). The amount of the hydrolyzed ASCh/BSCh is measured indirectly, by quantification of the product of its reaction with DTNB (5,5â²-dithio-bis-2-nitrobenzoic acid). Ellman's method relies therefore on the spectrophotometric quantification of product of the reaction between […] and DTNB. (DTNB colorimetry detects thiols as they appear.)
Cholinesterase, sequence (P06276 whole entry): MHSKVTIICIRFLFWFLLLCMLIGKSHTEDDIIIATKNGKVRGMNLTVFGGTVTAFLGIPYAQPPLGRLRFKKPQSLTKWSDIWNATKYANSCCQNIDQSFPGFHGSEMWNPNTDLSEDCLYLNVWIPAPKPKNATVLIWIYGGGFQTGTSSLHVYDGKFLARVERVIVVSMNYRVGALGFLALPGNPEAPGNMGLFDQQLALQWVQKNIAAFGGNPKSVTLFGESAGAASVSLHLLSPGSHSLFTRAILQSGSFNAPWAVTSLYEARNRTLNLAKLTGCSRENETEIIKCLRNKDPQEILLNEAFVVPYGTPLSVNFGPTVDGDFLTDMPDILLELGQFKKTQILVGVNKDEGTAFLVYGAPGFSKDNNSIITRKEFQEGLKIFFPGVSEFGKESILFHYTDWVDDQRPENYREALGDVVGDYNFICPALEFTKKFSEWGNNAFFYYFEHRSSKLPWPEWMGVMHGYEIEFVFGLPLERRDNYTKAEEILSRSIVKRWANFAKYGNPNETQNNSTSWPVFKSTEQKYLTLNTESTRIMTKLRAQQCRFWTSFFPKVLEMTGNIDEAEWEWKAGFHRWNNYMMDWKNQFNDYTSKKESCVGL

In another assay the target is Acetylcholinesterase (Homo sapiens, UniProt P22303). Described as §1.
Acetylcholinesterase, sequence (P22303 whole entry): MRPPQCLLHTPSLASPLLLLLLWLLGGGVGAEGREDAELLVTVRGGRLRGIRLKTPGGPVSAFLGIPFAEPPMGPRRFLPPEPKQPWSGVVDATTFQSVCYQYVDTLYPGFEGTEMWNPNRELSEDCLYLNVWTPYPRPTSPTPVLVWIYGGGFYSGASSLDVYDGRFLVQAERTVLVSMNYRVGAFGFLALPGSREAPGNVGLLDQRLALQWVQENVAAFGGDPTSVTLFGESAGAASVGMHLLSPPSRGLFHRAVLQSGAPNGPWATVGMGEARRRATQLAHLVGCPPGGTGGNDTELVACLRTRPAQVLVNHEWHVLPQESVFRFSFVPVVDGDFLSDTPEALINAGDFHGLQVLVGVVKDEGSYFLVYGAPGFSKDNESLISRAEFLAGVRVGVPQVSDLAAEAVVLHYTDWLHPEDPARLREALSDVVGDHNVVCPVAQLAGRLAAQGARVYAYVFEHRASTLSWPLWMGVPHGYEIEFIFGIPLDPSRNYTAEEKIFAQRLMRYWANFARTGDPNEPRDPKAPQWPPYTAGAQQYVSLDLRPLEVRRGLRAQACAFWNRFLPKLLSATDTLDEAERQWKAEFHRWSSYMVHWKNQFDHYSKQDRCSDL

The term pIC50 denotes −log10 of the IC50, conventionally taken in molar units.

pIC50: −log10 of the molar value.

In the case of `CC(=O)NCCc1c[nH]c2ccc(OC(=O)NCCCCCCCNc3c4c(nc5cc(Cl)ccc35)CCCC4)cc12`, the negative logarithm of the IC50 (pIC50) was 9.42 against Cholinesterase and 8.11 against Acetylcholinesterase.

Turning to `CC(=O)NCCc1c[nH]c2ccc(OC(=O)NCCNc3c4c(nc5cc(Cl)ccc35)CCCC4)cc12`, the negative-log IC50 (pIC50) was 7.46 against Cholinesterase and 7.70 against Acetylcholinesterase.

Turning to `CC(=O)NCCc1c[nH]c2ccc(OC(=O)NCCCCCCCNc3c4c(nc5ccc(Cl)cc35)CCCC4)cc12`, the negative logarithm of the IC50 (pIC50) is 9.06 on Cholinesterase and 7.40 against Acetylcholinesterase.

In the case of `CC(=O)NCCc1c[nH]c2ccc(OC(=O)NCCNc3c4c(nc5ccc(Cl)cc35)CCCC4)cc12`, the pIC50 at Cholinesterase was 8.09; at Acetylcholinesterase, 5.48.

Regarding `CC(=O)NCCc1c[nH]c2ccc(OC(=O)NCCCCCCCCCCNc3c4c(nc5cc(Cl)ccc35)CCCC4)cc12`, the negative-log IC50 (pIC50) against Cholinesterase is 8.92; against Acetylcholinesterase, 8.09.

Regarding `CC(=O)NCCc1c[nH]c2ccc(OC(=O)NCCCCCCCCCCCCNc3c4c(nc5cc(Cl)ccc35)CCCC4)cc12`, the negative logarithm of the IC50 (pIC50) on Cholinesterase was 8.88; against Acetylcholinesterase, 7.59.
